Laboratory results from patent US6506772B1, “Substituted [1,2,4]triazolo[1,5a]pyridine derivatives with activity as adenosine receptor ligands” (Hoffmann-La Roche Inc., priority 2000, dated 2003).
pKi: −log10 of the molar value.

Tests used:
HA1 adenosine receptor = molecular target: T1, HA1 adenosine receptor (Homo sapiens, UniProt P30542); assay: Human adenosine A1 receptor affinity (Ki hA1); type: binding; settings: affinity to human adenosine A1 receptor
T1 sequence (P30542 1-326): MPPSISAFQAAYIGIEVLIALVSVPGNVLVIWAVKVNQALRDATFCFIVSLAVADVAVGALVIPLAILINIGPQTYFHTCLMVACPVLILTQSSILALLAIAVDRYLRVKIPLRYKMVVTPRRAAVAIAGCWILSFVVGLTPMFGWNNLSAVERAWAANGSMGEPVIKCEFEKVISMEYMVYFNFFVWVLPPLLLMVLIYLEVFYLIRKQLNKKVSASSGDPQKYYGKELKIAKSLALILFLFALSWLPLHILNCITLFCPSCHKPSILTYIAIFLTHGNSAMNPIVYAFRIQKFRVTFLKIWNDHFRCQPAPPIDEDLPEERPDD

[1] = molecular target: T2, human adenosine A2A receptor (Homo sapiens, UniProt P29274); assay: Human adenosine A2A receptor [3H]-SCH-58261 binding assay; settings: for pKi: affinity to human adenosine A2A receptor, read-out: Ki HA2A; for selectivity (A1/A2a): calculated ratio of the affinity to the HA1 receptor to the HA2a receptor
T2 construct: expressed in transfected cells; host or cells: CHO cells, Semliki Forest virus expression system; membrane preparation
T2 sequence (P29274 whole entry): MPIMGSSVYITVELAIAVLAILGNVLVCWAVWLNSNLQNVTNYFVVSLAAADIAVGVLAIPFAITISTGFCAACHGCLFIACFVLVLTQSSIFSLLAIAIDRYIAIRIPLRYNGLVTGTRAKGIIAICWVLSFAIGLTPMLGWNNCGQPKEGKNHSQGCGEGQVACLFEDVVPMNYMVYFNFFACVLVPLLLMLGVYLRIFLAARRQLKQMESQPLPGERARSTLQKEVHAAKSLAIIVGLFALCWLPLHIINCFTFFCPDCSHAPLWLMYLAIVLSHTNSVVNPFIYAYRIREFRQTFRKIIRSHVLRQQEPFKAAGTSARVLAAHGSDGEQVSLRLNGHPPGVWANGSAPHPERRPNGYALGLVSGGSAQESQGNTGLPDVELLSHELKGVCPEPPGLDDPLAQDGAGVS

For `CCN(Cc1ccncc1)C(=O)c1cc(N)n2nc(-c3nccs3)nc2c1` [Example 325, 5-Amino-2-thiazol-2-yl-[1,2,4]triazolo[1,5-a]pyridine-7-carboxylic acid ethyl-pyridin-4-ylmethyl-amide], the pKi (HA1 adenosine receptor) was 5.88, the pKi [1] was 7.42 and the “selectivity (A1/A2a)” value [1] was 35.2.

In the case of `Nc1cc(C(=O)N(Cc2ccccc2)Cc2ccccc2)cc2nc(-c3nccs3)nn12` [Example 327, 5-Amino-2-thiazol-2-yl-[1,2,4]triazolo[1,5-a]pyridine-7-carboxylic acid dibenzylamide], the pKi (HA1 adenosine receptor) was 6.89, the pKi [1] was 8.24 and the “selectivity (A1/A2a)” value [1] was 22.2.

In the case of `CCNC(=O)c1cc(N)n2nc(-c3nccs3)nc2c1` [Example 328, 5-Amino-2-thiazol-2-yl-[1,2,4]triazolo[1,5-a]pyridine-7-carboxylic acid ethylamide], the pKi (HA1 adenosine receptor) was 5.91, the pKi [1] was 7.50 and the “selectivity (A1/A2a)” value [1] was 39.1.

In the case of `CC1CCCCN1C(=O)c1cc(N)n2nc(-c3nccs3)nc2c1` (stereo not drawn) [Example 329, (5-Amino-2-thiazol-2-yl-[1,2,4]triazolo[1,5-a]pyridin-7-yl)-(2-methyl-piperidin-1-yl)-methanone], the pKi (HA1 adenosine receptor) was 5.70, the pKi [1] was 7.33 and the “selectivity (A1/A2a)” value [1] was 41.9.

For `CC1CCN(C(=O)c2cc(N)n3nc(-c4nccs4)nc3c2)CC1` [Example 330, (5-Amino-2-thiazol-2-yl-[1,2,4]triazolo[1,5-a]pyridin-7-yl)-(4-methyl-piperidin-1-yl)-methanone], the pKi (HA1 adenosine receptor) was 5.56, the pKi [1] was 7.19 and the “selectivity (A1/A2a)” value [1] was 43.1.

`CCCN(CCC)C(=O)c1cc(N)n2nc(-c3nccs3)nc2c1` [Example 331, 5-Amino-2-thiazol-2-yl-[1,2,4]triazolo[1,5-a]pyridine-7-carboxylic acid dipropylamide] was tested, and the pKi (HA1 adenosine receptor) was 5.57, the pKi [1] was 7.06 and the “selectivity (A1/A2a)” value [1] was 30.9.

In the case of `Nc1cc(C(=O)N2CCCCCCC2)cc2nc(-c3nccs3)nn12` [Example 332, (5-Amino-2-thiazol-2-yl-[1,2,4]triazolo[1,5-a]pyridin-7-yl)-azocan-1-yl-methanone], the pKi (HA1 adenosine receptor) was 6.07, the pKi [1] was 7.76 and the “selectivity (A1/A2a)” value [1] was 49.1.

`CC1CC(C)CN(C(=O)c2cc(N)n3nc(-c4nccs4)nc3c2)C1` (stereo not drawn) [Example 333, (5-Amino-2-thiazol-2-yl-[1,2,4]triazolo[1,5-a]pyridin-7-yl)-(3,5-dimethyl-piperidin-1-yl)-methanone] was tested, and the pKi (HA1 adenosine receptor) was 5.76, the pKi [1] was 7.44 and the “selectivity (A1/A2a)” value [1] was 47.9.

For `CCCCN(CCC)C(=O)c1cc(N)n2nc(-c3nccs3)nc2c1` [Example 334, 5-Amino-2-thiazol-2-yl-[1,2,4]triazolo[1,5-a]pyridine-7-carboxylic acid butyl-propyl-amide], the pKi (HA1 adenosine receptor) was 5.75, the pKi [1] was 7.01 and the “selectivity (A1/A2a)” value [1] was 18.3.

In the case of `CCNC(=O)c1cc(N)n2nc(-c3ccc(Br)o3)nc2c1` [Example 335, 5-Amino-2-(5-bromo-furan-2-yl)-[1,2,4]triazolo[1,5-a]pyridine-7-carboxylic acid ethylamide], the pKi (HA1 adenosine receptor) was 6.45, the pKi [1] was 7.60 and the “selectivity (A1/A2a)” value [1] was 14.1.

With `CC1CCN(C(=O)c2cc(N)n3nc(-c4ccc(Br)o4)nc3c2)CC1` [Example 337, [5-Amino-2-(5-bromo-furan-2-yl)-[1,2,4]triazolo[1,5-a]pyridin-7-yl]-(4-methyl-piperidin-1-yl)-methanone] the pKi (HA1 adenosine receptor) was 6.74, the pKi [1] was 8.19 and the “selectivity (A1/A2a)” value [1] was 28.6.

`CCCN(CCC)C(=O)c1cc(N)n2nc(-c3ccc(Br)o3)nc2c1` [Example 338, 5-Amino-2-(5-bromo-furan-2-yl)-[1,2,4]triazolo[1,5-a]pyridine-7-carboxylic acid dipropylamide] was tested, and the pKi (HA1 adenosine receptor) was 6.70, the pKi [1] was 8.51 and the “selectivity (A1/A2a)” value [1] was 64.4.

For `Nc1cc(C(=O)N2CCCCCCC2)cc2nc(-c3ccc(Br)o3)nn12` [Example 339, [5-Amino-2-(5-bromo-furan-2-yl)-[1,2,4]triazolo[1,5-a]pyridin-7-yl]-azocan-1-yl-methanone], the pKi (HA1 adenosine receptor) was 7.43, the pKi [1] was 8.89 and the “selectivity (A1/A2a)” value [1] was 28.5.

For `CN(C(=O)c1cc(N)n2nc(-c3ccc(Br)o3)nc2c1)C1CCCCC1` [Example 340, 5-Amino-2-(5-bromo-furan-2-yl)-[1,2,4]triazolo[1,5-a]pyridine-7-carboxylic acid cyclohexyl-methyl-amide], the pKi (HA1 adenosine receptor) was 7.11, the pKi [1] was 8.59 and the “selectivity (A1/A2a)” value [1] was 29.7.

With `CC1CC(C)CN(C(=O)c2cc(N)n3nc(-c4ccc(Br)o4)nc3c2)C1` (stereo not drawn) [Example 341, [5-Amino-2-(5-bromo-furan-2-yl)-[1,2,4]triazolo[1,5-a]pyridin-7-yl]-(3,5-dimethyl-piperidin-1-yl)-methanone] the pKi (HA1 adenosine receptor) was 6.92, the pKi [1] was 8.77 and the “selectivity (A1/A2a)” value [1] was 70.3.

`CCCCN(CCC)C(=O)c1cc(N)n2nc(-c3ccc(Br)o3)nc2c1` [Example 342, 5-Amino-2-(5-bromo-furan-2-yl)-[1,2,4]triazolo[1,5-a]pyridine-7-carboxylic acid butyl-propyl-amide] was tested, and the pKi (HA1 adenosine receptor) was 6.85, the pKi [1] was 8.52 and the “selectivity (A1/A2a)” value [1] was 47.3.

With `CN(Cc1ccccc1)C(=O)c1cc(N)n2nc(-c3ccc(Br)o3)nc2c1` [Example 343, 5-Amino-2-(5-bromo-furan-2-yl)-[1,2,4]triazolo[1,5-a]pyridine-7-carboxylic acid benzyl-methyl-amide] the pKi (HA1 adenosine receptor) was 7.37, the pKi [1] was 8.57 and the “selectivity (A1/A2a)” value [1] was 15.6.

For `C=CCN(C(=O)c1cc(N)n2nc(-c3ccc(Br)o3)nc2c1)C1CCCC1` [Example 344, 5-Amino-2-(5-bromo-furan-2-yl)-[1,2,4]triazolo[1,5-a]pyridine-7-carboxylic acid allyl-cyclopentyl-amide], the pKi (HA1 adenosine receptor) was 7.14, the pKi [1] was 8.80 and the “selectivity (A1/A2a)” value [1] was 44.8.

With `CCN(C(=O)c1cc(N)n2nc(-c3ccc(Br)o3)nc2c1)C1CCCCC1` [Example 345, 5-Amino-2-(5-bromo-furan-2-yl)-[1,2,4]triazolo[1,5-a]pyridine-7-carboxylic acid cyclohexyl-ethyl-amide] the pKi (HA1 adenosine receptor) was 7.21, the pKi [1] was 8.70 and the “selectivity (A1/A2a)” value [1] was 31.1.

For `CC(C)CN(CC(C)C)C(=O)c1cc(N)n2nc(-c3ccc(Br)o3)nc2c1` [Example 346, 5-Amino-2-(5-bromo-furan-2-yl)-[1,2,4]triazolo[1,5-a]pyridine-7-carboxylic acid diisobutylamide], the pKi (HA1 adenosine receptor) was 6.99, the pKi [1] was 8.62 and the “selectivity (A1/A2a)” value [1] was 42.7.

For `Nc1cc(C(=O)N2CCc3ccccc3C2)cc2nc(-c3ccc(Br)o3)nn12` [Example 347, [5-Amino-2-(5-bromo-furan-2-yl)-[1,2,4]triazolo[1,5-a]pyridin-7-yl]-(3,4-dihydro-1H-isoquinolin-2-yl)-methanone], the pKi (HA1 adenosine receptor) was 6.63, the pKi [1] was 7.88 and the “selectivity (A1/A2a)” value [1] was 17.7.

For `C=CCN(C(=O)c1cc(N)n2nc(-c3ccc(Br)o3)nc2c1)C1CCCCC1` [Example 348, 5-Amino-2-(5-bromo-furan-2-yl)-[1,2,4]triazolo[1,5-a]pyridine-7-carboxylic acid allyl-cyclohexyl-amide], the pKi (HA1 adenosine receptor) was 7.17, the pKi [1] was 8.59 and the “selectivity (A1/A2a)” value [1] was 25.8.

`Nc1cc(C(=O)N2CCCC3CCCCC32)cc2nc(-c3ccc(Br)o3)nn12` (stereo not drawn) [Example 349, [5-Amino-2-(5-bromo-furan-2-yl)-[1,2,4]triazolo[1,5-a]pyridin-7-yl]-(octoahydro-quinolin-1-yl)-methanone] was tested, and the pKi (HA1 adenosine receptor) was 7.19, the pKi [1] was 8.54 and the “selectivity (A1/A2a)” value [1] was 22.3.

With `Nc1cc(C(=O)N2CCC3CCCCC3C2)cc2nc(-c3ccc(Br)o3)nn12` (stereo not drawn) [Example 350] the pKi (HA1 adenosine receptor) was 6.78, the pKi [1] was 8.24 and the “selectivity (A1/A2a)” value [1] was 28.8.

`CC(C)N(C(=O)c1cc(N)n2nc(-c3ccc(Br)o3)nc2c1)C1CCCCC1` [Example 351, 5-Amino-2-(5-bromo-furan-2-yl)-[1,2,4]triazolo[1,5-a]pyridine-7-carboxylic acid cyclohexyl-isopropyl-amide] was tested, and the pKi (HA1 adenosine receptor) was 7.11, the pKi [1] was 8.54 and the “selectivity (A1/A2a)” value [1] was 26.7.

In the case of `Nc1cc(C(=O)N2CCN(c3ccccc3)CC2)cc2nc(-c3ccc(Br)o3)nn12` [Example 353, [5-Amino-2-(5-bromo-furan-2-yl)-[1,2,4]triazolo[1,5-a]pyridin-7-yl]-(4-phenyl-piperazin-1-yl)-methanone], the pKi (HA1 adenosine receptor) was 5.98, the pKi [1] was 7.09 and the “selectivity (A1/A2a)” value [1] was 12.7.

In the case of `Nc1cc(C(=O)N2CCCCC2c2cccnc2)cc2nc(-c3ccc(Br)o3)nn12` (stereo not drawn) [Example 354, [5-Amino-2-(5-bromo-furan-2-yl)-[1,2,4]triazolo[1,5-a]pyridin-7-yl]-(3,4,5,6-tetrahydro-2H-[2,3′]bipyridinyl-1-yl)-methanone], the pKi (HA1 adenosine receptor) was 7.34, the pKi [1] was 8.54 and the “selectivity (A1/A2a)” value [1] was 15.7.

`Nc1cc(C(=O)N2CCc3c([nH]c4ccccc34)C2)cc2nc(-c3ccc(Br)o3)nn12` [Example 355, [5-Amino-2-(5-bromo-furan-2-yl)-[1,2,4]triazolo[1,5-a]pyridin-7-yl]-(1,3,4,9-tetrahydro-b-carbolin-2-yl)-methanone] was tested, and the pKi (HA1 adenosine receptor) was 6.54, the pKi [1] was 7.33 and the “selectivity (A1/A2a)” value [1] was 6.1.

In the case of `C[C@@H]1CCC[C@H](C)N1C(=O)c1cc(N)n2nc(-c3nccs3)nc2c1` [Example 358, (5-Amino-2-thiazol-2-yl-[1,2,4]triazolo[1,5-a]pyridin-7-yl)-(cis-2,6-dimethyl-piperidin-1-yl)-methanone], the pKi (HA1 adenosine receptor) was 5.76, the pKi [1] was 7.13 and the “selectivity (A1/A2a)” value [1] was 23.0.
